Data published in patent US20030224398A1, “Purification of the leading front of migratory cells” (priority 2002, published 2003).

Columns and labels:
NIH 3T3 cells [1] = test: Cell migration through 8.0-μm porous Boyden chambers, gradient or uniform chemokine; type: cell-based, mouse; details: for chemoattractant activity (directed cell migration toward a gradient) / random cell migration: NIH 3T3, 8.0-μm pores; for chemoattractant activity (directed cell migration toward a gradient): 3 h; for random cell migration: uniform concentration
Procedure: (§1) Pseudopodia extension was monitored using a pseudopodia assay kit (ECM 650; Chemicon International) or Costar chambers. Serum-starved cells (75,000) were placed into the upper compartment of a chamber ([…]) equipped with a 3.0-μm porous polycarbonate membrane coated on both sides with an optimal amount of ECM protein (5 μg/ml fibronectin or collagen type I). Cells were allowed to attach and spread on the upper surface of the membrane for 2 h, and then stimulated with LPA (Sigma-Aldrich), insulin, or buffer only, which was placed in the lower chamber to establish a gradient or placed in the upper and lower chamber to form a uniform concentration. Cells were allowed to extend pseudopodia through the pores toward the direction of the gradient for various times. To initiate pseudopodia retraction, the chemoattractant was removed or an equivalent amount of chemoattractant placed in the upper chamber to create a uniform concentration. The cell body on the upper surface was manually removed with a cotton swab and the total pseudopodia protein only on the undersurface was determined using BCA and a microprotein assay system (Pierce Chemical Co.). Additionally, pseudopodia can be stained with 1% crystal violet in 2% ethanol and then the dye eluted with 10% acetic acid, which can be measured in an ELISA plate reader (OD 600) for comparison to a standard curve as previously described (Klemke et al., 1998).
(§2) NIH 3T3 cells were examined for cell migration for 3 h in 8.0-μm porous Boyden chambers containing different concentrations of LPA or insulin placed in 1) the bottom, 2) top, or 3) top and bottom compartments. The number of migratory cells per microscopic field (200×) on the underside of the membrane was counted as described in Example 1 above. Additionally, COS-7 cells were examined for cell migration as described above with respect to NIH 3T3 cells. […] In FIG. 1, each point on the graphs represents the mean±SEM of three triplicate migration chambers of three independent experiments.

NIH 3T3 cells [2] = test: Pseudopodia extension through 3.0-μm porous membranes toward LPA; type: cell-based, mouse; details: 3.0-μm pores
Procedure: as §1
NIH 3T3 cells were allowed to attach to fibronectin coated 3.0-μm porous membranes for 2 h. Pseudopodia extension was then examined for various times in the absence (NT) or presence of LPA (100 ng/ml) in the bottom, top, or top and bottom compartments. Pseudopodia protein on the underside of the membrane was determined as described in Example 1. Results are set forth in FIG. 2, where each point in the graphs represents the mean±SEM of three triplicate membranes of three independent experiments. COS-7 cells were examined for pseudopodia protrusion in the same manner as for NIH 3T3 cells as described above.
Confocal images of NIH 3T3 pseudopodia protrusion on the undersurface of a 3.0-μm porous membrane in response to LPA (100 ng/ml) as a gradient (LPA bottom) or uniform concentration (LPA top and bottom) were generated. Cells were labeled with cell tracker green and then fixed at the indicated times to visualize protruding pseudopodia on the undersurface of the membrane.

NIH 3T3 cells [3] = test: Pseudopodia retraction after removal of the LPA gradient; type: cell-based, mouse
Procedure: as §1
Pseudopodia retraction was studied via the following methods. Pseudopodia extension of NIH 3T3 cells through 3.0-μm pores toward an LPA gradient was examined at 60, 120, 180 and 240 minutes, or the LPA gradient was removed after 60 min and pseudopodia were allowed to retract for the indicated times (LPA Removed). Total pseudopodia protein on the underside of the membrane was determined as described in Example 1.
Pseudopodia were allowed to extend for 60 min (time 0) toward an LPA gradient as described above. The gradient was then removed and pseudopodia were fixed at the indicated times (0, 30, 60, 120 minutes). […]

COS-7 cells = test: Cell migration through 8.0-μm porous Boyden chambers, gradient or uniform chemokine; type: cell-based; details: for chemoattractant activity (directed cell migration toward a gradient) / random cell migration: COS-7, 8.0-μm pores; for random cell migration: uniform concentration
Procedure: as §1, §2

[4] = listed as lysophosphatidic acid
[5] = LPA gradient removed after 60 min extension

Substance | chemoattractant activity (directed cell migration toward a gradient) (NIH 3T3 cells [1]) | chemoattractant activity (directed cell migration toward a gradient) (NIH 3T3 cells [1]; listed as LSA) | chemoattractant activity (directed cell migration toward a gradient) (NIH 3T3 cells [1]; [4]) | random cell migration (NIH 3T3 cells [1]) | concentration at which chemotaxis reached a maximum (NIH 3T3 cells [1]; NIH 3T3, dose dependent) [ng/mL] | pseudopodia extension, gradient versus uniform concentration (NIH 3T3 cells [2]; LPA gradient but not uniform concentration) | time at which extension of pseudopodia was first detected after exposure to the gradient (NIH 3T3 cells [2]; LPA gradient) [min] | time over which pseudopodia extension proceeded linearly (NIH 3T3 cells [2]; LPA gradient) [min] | cells polarized by extending pseudopodia (NIH 3T3 cells [2]; LPA gradient, confocal microscope) [%] | cells displaying pseudopodia retraction (NIH 3T3 cells [3]; [5]) [%] | onset of pseudopodia retraction after removing the gradient (NIH 3T3 cells [3]; [5]) [min] | effect of restoring the gradient on retracting pseudopodia (NIH 3T3 cells [3]; LPA gradient restored after removal) | chemoattractant activity (directed cell migration toward a gradient) (COS-7 cells) | chemoattractant activity (directed cell migration toward a gradient) (COS-7 cells; listed as LSA) | chemoattractant activity (directed cell migration toward a gradient) (COS-7 cells; [4]) | random cell migration (COS-7 cells) | concentration at which chemotaxis reached a maximum (COS-7 cells; COS-7, dose dependent) [ng/mL]
lysophosphatidic acid [LPA] | true chemoattractant | potent chemoattractant | potent chemoattractant | does not facilitate random cell migration | 100 to 200 | extend pseudopodia through small pores specifically in the direction of the gradient | 10 to 15 | 60 to 90 | > 90 | > 80 | ≤ 5 | inhibited the retraction process and induced pseudopodia growth | true chemoattractant | potent chemoattractant | potent chemoattractant | does not facilitate random cell migration | 100 to 200
insulin | poor chemoattractant |  |  | promoted random migration |  |  |  |  |  |  |  |  | poor chemoattractant |  |  | promoted random migration | 
